Experimental data as given in patent US12258574B2, “Methods and compositions for transducing lymphocytes and regulating the activity thereof” (Exuma Biotech Corp., priority 2016, dated 2025).
Counter-ions that a name gives are not always drawn.

B1: T1B: an anti-Target 1 MRB-CAR from the series of candidate MRB-CARs in Example 3 (protein)
chain: EVQLVQSGAEVKKPGATVKISCKVSGYSFWGATMNWIRQPPGKGLEWIGLIKPSNGGTSYNQKFKGRVTISADKSISTAYLQWSSLKASDTAMYYCAHGHYESYEAMDYWGQGTLVTVSSGGGGSGGGGSGGGGSDIQMTQSPSSLSASVGDRVTITCKASQDVVSAVAWYQQKPGQAPRLLIYWQDTRHTGVPSRFSGSGSGTEFTLTISSLQPDDFATYYCQEHFSPPLTFGQGTKVEIKFWVLVVVGGVLACYSLLVTVAFIIFWVRSKRSRLLHSDYMNMTPRRPGPTRKHYQAYAAARDFAAYRSRVKFSRSADAPAYQQGQNQLYNELNLGRREEYDVLDKRRGRDPEMGGKPRRKNPQEGLYNELQKDKMAEAYSEIGMKGERRRGKGHDGLYQGLSTATKDTYDALHMQALPPR

Legend:
CHO-Target 1 cells = experiment: pH shift cytotoxicity assay / HCl switch RTCA killing assay (xCELLigence); format: cell-based
Procedure: The cytotoxic activity of transduced T cells before and after pH change by addition of NaHCO3 or NaOH was measured using the xCELLigence System. Briefly, one day before the experiment, target cells (CHO cells stably transfected with a construct to express Target 1 on the cell surface (CHO-Target 1 cells)), were seeded into a 96-well E-plate (ACEA; San Diego, CA) at 10,000 cells/well with X-VIVO 15 media containing 40 mM HEPES and 40 mM PIPES, pH 6.7. Cryopreserved effector cells previously transduced with either lentiviral particles containing the nucleic acid encoding T1B or C1 (T1BVP and C1VP, respectively) produced as discussed above, were thawed and cultured for two days in X-VIVO 15 media containing 100 IU/mL of IL-2 (R&D Systems, Minneapolis, MN). On the day of the experiment, cells transduced with T1BVP or C1VP were washed and resuspended in X-VIVO 15 media containing 40 mM HEPES and 40 mM PIPES, pH 6.7 and then added into the experimental wells at effector cell/target cell ratios (E/T) of 1:1.
Impedance readings measured on the xCELLigence System (ACEA) were taken every 5 minutes and reported as the Cell Index (CI) to quantitate cell confluency as a measure of cell proliferation/cell lysis. Approximately 3 hours after effector cell addition, 8 μl of 7.5% NaHCO3 or 14 μl of 0.5 M NaOH was added into the wells with X-VIVO 15 media containing 40 mM HEPES and 40 mM PIPES, pH 6.7 to increase the pH from 6.7 to 7.4. Impedance readings were continued for approximately 20 hours after effector cell addition. Percentage of specific cytolysis was calculated as follows ((CI Target+C1VP transduced effector T cells)−(CI Target+T1BVP transduced effector T cells))/(CI Target+C1VP transduced effector T cells)×100.
The cytotoxic activity of transduced T cells before and after pH change by addition of HCl was measured using the xCELLigence System. Briefly, one day before the experiment, CHO-Target 1 cells were seeded into a 96 well E-plate at 10,000 cells/well with X-VIVO 15 media containing 40 mM HEPES and 40 mM PIPES, pH 7.4. Cryopreserved effector cells previously transduced with either C1VP or T1BVP, were thawed and cultured for two days in X-VIVO 15 media containing 100 IU/mL of IL-2. On the day of the experiment, cells transduced with T1BVP or C1VP were washed and resuspended in X-VIVO 15 media containing 40 mM HEPES and 40 mM PIPES, pH 7.4 and then added into experimental wells at effector cell/target cell ratios (E/T) of 1:1.
Impedance readings were taken every 5 minutes and reported as the Cell Index (CI). […] Impedance readings were continued for approximately 20 hours after effector cell addition. Percentage of specific cytolysis was calculated as follows ((CI Target+C1VP transduced effector T cells)−(CI Target+T1BVP transduced effector T cells))/(CI Target C1VP)×100.

deoxyguanosine switch = experiment: Tests of natural deoxyguanosine riboswitch with nucleoside analogues; format: binding
Source text: This example provides a method to screen libraries based on natural structural riboswitches that bind guanosine and deoxyguanosine. These riboswitches were used as scaffolds to develop biased libraries for the selection of aptamers that bind specifically to a ligand nucleoside analogue. Previously, isothermal titration calorimetry has been used to show these natural riboswitches bind to their native ligands. […] The single-stranded regions of the riboswitch were targeted for mutation and variant sequences that specifically respond to acyclovir or penciclovir were selected for.

[1] = Deep sequencing and sequence family analysis of parallel assessment populations, acyclovir candidates; format: binding; details: for Enrichment rate: ratio between final positive and penultimate positive population; for presence in the negative population: sequenced final generation library responding to 1X selection buffer; for presence in the counter-targets population: sequenced final generation library responding to counter-targets
Source text: The Illumina MiSeq system (San Diego, CA) was implemented to sequence the aptamer libraries after parallel assessment using a single-end read technique. Deep sequencing and subsequent data analysis reduces the large number of screening rounds traditional SELEX requires, which may introduce error and bias due to the screening process (Schütze et al., 2011). Five samples were sequenced: the final generation library that responded to acyclovir, the final generation library that responded to the counter-targets, the final generation library that responded to 1× selection buffer (negative condition), the penultimate generation library that responded to acyclovir, and the final generation library that responded to the additional target of interest, penciclovir. From these sets of data, sequence families were constructed at 95% homology (sequence similarity considering mutations, deletions, and insertion) for aptamer candidate identification. There were 1,711,535 raw sequences (124,600 unique sequences) from the library that responded to acyclovir and 2,074,832 raw sequences (110,149 unique sequences) from the library that responded to penciclovir.
Sequence family construction focused primarily on sequence similarity. This means that a sequence's frequency in the positive target population was factored in, but greater emphasis was placed on the degree of variation between similar sequences, with 95% homology being the minimum requirement (100% match over the entire sequence is not necessary to join a family, up to 2 bases can be mismatched, inserted, or deleted). One would therefore expect families with the greatest number of members to rank highly as aptamer candidates. […] Under these conditions, several candidate families appeared to be strong candidates for binding acyclovir (Table 2) and penciclovir.

[2] = Qualitative PAGE assessment of selected aptamers after graphene oxide selection; format: binding; details: 0.5 mM MgCl2, 37° C., 0.5 μM aptamer, 1 μM target or counter-targets
Procedure: Qualitative PAGE assessment of selected aptamers was performed. Individually synthesized and transcribed aptamers were subjected to selection on Graphene Oxide (GrO) under physiological Mg++ (0.5 mM) and elution with either acyclovir (+) or counter-targets (×). The specifically eluted aptamer fractions for each sample were subjected to PAGE for analysis.
Final library concentration was 0.5 μM, target/counter-targets concentration was 1 μM (incubation volume was 200 μl).
After target/counter-target incubation, 250 μg of GrO (Angstrom Materials (Dayton, OH) was added to adsorb unbound candidate (10-minute incubation at 37° C.).
Samples were centrifuged for 5 minutes at 7,000×g. […] Running buffer was 1×TBE (supplier: Amresco/VWR; catalog #0658-20L, diluted using DI water). DNA ladder was 20/100 DNA ladder (IDT). Gels stained with Gel Star (Lonza, 50535) and imaged on a blue light transilluminator.

[3] = Thermal denaturation by differential scanning calorimetry (DSC)
Procedure: At least 10 nmole of each candidate was lyophilized, and resuspended in 1× Binding Buffer (50 mM HEPES, 100 mM KCl, 0.5 mM MgCl2, pH 7.3) on the day of binding assessment.
All analyses were conducted in 1× Binding Buffer and all water used was DEPC-treated. All analytes were resuspended first in DEPC-treated water then diluted to their final listed concentration in 1× Binding Buffer. Prior to loading of the DSC (GE Healthcare MicroCal VP-DSC), the samples were degassed at 25° C. for 10 minutes.

| Molecule | Enrichment rate [1] | presence in the negative population [1] | presence in the counter-targets population [1] | response in qualitative PAGE assessment (elution from GrO with acyclovir vs counter-targets) [2] | other results |
| --- | --- | --- | --- | --- | --- |
| Cl [HCl] |  |  |  |  | effect on cytotoxic activity of MRB-CAR T cells of switching media pH from 7.4 to 6.7 (CHO-Target 1 cells; 8 μl of 1 M HCl about 3 hours after effector cells, E/T 1:1): increased |
| [Na+].[OH-] [NaOH] |  |  |  |  | effect on cytotoxic activity of MRB-CAR T cells of raising media pH from 6.7 to 7.4 (CHO-Target 1 cells; added about 3 hours after effector cells, E/T 1:1): inhibited the cytotoxic activity |
| Nc1nc2c(ncn2COCCO)c(=O)[nH]1 [acyclovir] |  |  |  |  | interaction with deoxyguanosine switch (deoxyguanosine switch): interacted weakly |
| Nc1nc2c(ncn2CCC(CO)CO)c(=O)[nH]1 [penciclovir] |  |  |  |  | interaction with deoxyguanosine switch (deoxyguanosine switch): interacted weakly |
| F1A-582: acyclovir aptamer candidate, most prevalent sequence of family 582; SEQ ID NO:108 (ACAGCTTAGCGTAATGGCTACTGACGCCGTCCAAACCTATTTACAGACT; RNA riboswitch aptamer, listed DNA covers non-stem region only, further chemistry not given here) [Candidate F1A-582] | greatest enrichment rate | did not perform well | did not perform well |  |  |
| F1A-769: acyclovir aptamer candidate, most prevalent sequence of family 769; SEQ ID NO:147 (ACAGGTCAGCATAATGTGCTAGTGCGCCTTCAAACCTATTTAGAGACT; RNA riboswitch aptamer, listed DNA covers non-stem region only, further chemistry not given here) [Candidate F1A-769] | performing adequately | minimally detected |  | selective positive response |  |
| F1A-795: acyclovir aptamer candidate, most prevalent sequence of family 795; SEQ ID NO:164 (ACAGCGAAGCATAATGGCTACTGACGCCCTCAAACCCTATTTGCAGACT; RNA riboswitch aptamer, listed DNA covers non-stem region only, further chemistry not given here) [Candidate F1A-795] |  | performing less well | not detected | selective positive response | thermal denaturation transition ([3]; absence of acyclovir, 7.2 μM F1A-795, 1X Binding Buffer): about 60 °C; binding of acyclovir to the aptamer domain ([3]; concluded from stabilizing effect in DSC): bound by acyclovir |
| F1A-935: acyclovir aptamer candidate, most prevalent sequence of family 935; SEQ ID NO:183 (ACAGGGTAGCATAATGGGCTACTTGACGCCTTCACCTATTTGTAGACT; RNA riboswitch aptamer, listed DNA covers non-stem region only, further chemistry not given here) [Candidate F1A-935] | performing adequately | not found | not detected |  |  |
| F1A-946: acyclovir aptamer candidate, most prevalent sequence of family 946; SEQ ID NO:198 (ACAGCGTAGCATAATGGGCTGCAGACGCCGTCAAACCTATTTGCAGACT; RNA riboswitch aptamer, listed DNA covers non-stem region only, further chemistry not given here) [Candidate F1A-946] | performing adequately | not found | not detected | selective positive response |  |
| F1A-961: acyclovir aptamer candidate; SEQ ID NO:220 (ACACCGTAGCATAATGGGCTACTGCCGCCGTCGACCTTTTGGAGACT; RNA riboswitch aptamer, listed DNA covers non-stem region only, further chemistry not given here) [Candidate F1A-961] |  | performing less well | show up to a small degree |  |  |
| F1A-996: acyclovir aptamer candidate; SEQ ID NO:221 (ACAGGGTAGCATAATGGCTTAGGACGCCTTCAAACCTATCAAGACT; RNA riboswitch aptamer, listed DNA covers non-stem region only, further chemistry not given here) [Candidate F1A-996] |  | performing less well | show up to a small degree | selective positive response |  |
| B1 |  |  |  |  | cytotoxic activity on CHO-Target 1 cells (CHO-Target 1 cells; pH 7.4, E/T 1:1): low |
